Columns and labels:
Format in all cases: in vivo, Arabidopsis thaliana
AtCel5-GUS expression = assay: GUS activity in roots of transgenic AtCel5-GUS seedlings (fluorometric MUG assay); conditions: for Relative activity (GUS activity relative to controls): overlaid 24 hours with 10 ml of 100 μM ABA, fitted slope ± standard error
Method: To investigate the influence of indole-3-acetic acid (IAA; Sigma) plants were grown under liquid conditions as well as vertical plates. In all experiments the roots were separated from the shoots, frozen in liquid Nitrogen, and stored at −80° C. prior to analysis. […] Seeds were cold treated for 4 days at 4° C. to promote even germination. Liquid cultures were placed on a rotary shaker at 120 rpm and grown under 24 hours of fluorescent light at room temperature. […] Plates were transferred to the light incubator for 10 days and set in a vertical position. The inhibitory effect of NPA on root gravity perception was examined by observing the direction of root growth in plates set in a horizontal position.
For analysis of the effects of ABA, a 100 mM ABA stock solution was prepared in 100% ethanol (13.22 mg ABA/0.5 ml) and then diluted 1000× in water. Seeds expressing AtCel5-GUS were plated on agar basal medium and grown for 7 and 10 days. Under sterile conditions, plates with seedlings were opened and 10 ml of 100 μM ABA was added to bathe the seedlings. Plates were then set horizontally in the light incubator for 24 hours.
Quantification of GUS activity was performed according to the method of Jefferson et al. (1987) using the fluorogenic substrate MUG (4-methyl-umbelliferyl-β-D-glucuronide). Only root tissue was used to analyze GUS activity. Tissues were ground in MUG extraction buffer and centrifuged for 5 minutes, at maximal speed in a microfuge, to clear the supernatant. An aliquot of crude extract containing the same number of root tips per treatment was mixed with the MUG reaction buffer containing 2 mM MUG and incubated at 37° C. Five or six aliquots were taken from the enzyme reaction at 60 minute intervals. At each time point, the reaction was stopped with 0.2 M Na2CO3. Fluorescence was determined using a one-channel fluorometer (Turner Designs Picofluor) with an excitation range of 365-395 nm and emission wavelengths of greater than 430 nm. The fitted linear slope (±standard error) of fluorescence vs. incubation time was used as a relative measure of GUS content for comparison of controls and treatments.

[1] = system: AtCel5-GUS expression in the root cap; assay: Histochemical GUS staining of AtCel5-GUS seedlings
Method: For analysis of ethylene regulation, seeds expressing AtCel5-GUS were plated on agar containing half-strength MS medium supplemented with 10 μM of 1 aminocyclo-propane-1 carboxylic acid (ACC; Sigma), made from a stock (1000×) prepared in water. […]
Plant tissues were collected in 90% acetone and incubated on ice for at least 10 min. Tissues were rinsed with 50 mM NaPO4 pH 7.2, […] and […] and then placed in staining solution (2 mM 5-bromo-4-chloro-3-indolyl-β-D-[…] [X-Glu; Sigma] in rinse solution), vacuum infiltrated for 10 minutes and finally incubated at 37° C. for 2 hours or overnight. Seedlings were examined using a microscope and photographed with a Digital Nikon 990 Camera.

AtCel5 transcript = assay: RT-PCR of AtCel5 transcript in roots, normalized to KOR; conditions: 10 μM ACC
Method: For comparative RT-PCR analysis of roots exposed to various treatments, or the analysis of expression of the AtCel5 duplicon, a two-step RT-PCR was performed using the Retroscript kit (Ambion, Austin, Tex.). Total root RNA was pretreated with DNAse prior to reverse transcription (Ambion DNA-free kit). The first strand cDNA was prepared with oligo dT primers and used as template for PCR reactions. RT-PCR was normalized using Actin-11 or KOR as internal standards. […] Each cycle included a denaturation and an extension step at 94° C. for 45 seconds, and at 72° C. for 70 seconds, respectively. The annealing step was carried out for 30 seconds at the temperature optimal for each primer pair: • AtCel5 (set II), 58° C.; KOR, 62° C.; Actin-11, 60° C.; AtCel3, 65° C.

CC1=CC(=O)CC(C)(C)C1(O)/C=C/C(C)=C\C(=O)O (stereo not drawn) [ABA, abscissic acid]
AtCel5 expression after ABA treatment (AtCel5-GUS expression; 24 hour ABA treatment, both experiments, vs control): reduced by almost half | Relative activity (GUS activity relative to controls) (AtCel5-GUS expression; Experiment number 1: seedlings 7 days post-germination): 0.53 ± 0.04 | Relative activity (GUS activity relative to controls) (AtCel5-GUS expression; Experiment number 2: seedlings 10 days post germination): 0.42 ± 0.06

NC1(C(=O)O)CC1 [ACC, 1 aminocyclo-propane-1 carboxylic acid]
AtCel5-GUS expression once growth stalled ([1]; after 10 days on ACC plates, staining reappeared on fresh media without ACC): disappeared | GUS staining in the root cap ([1]; seedlings grown for 10 days on MS plates containing 10 μM ACC): still observed | AtCel5 transcript, control vs treated roots (AtCel5 transcript): no significant changes

O=C(O)Cc1c[nH]c2ccccc12 [IAA, indole-3-acetic acid]
Quantitative GUS activity in roots compared to controls (AtCel5-GUS expression; agar plates supplemented with 10 μM IAA): large decrease | GUS activity compared to controls (AtCel5-GUS expression; seedlings grown on liquid MS containing IAA (50 μM)): greatly reduced

O=C(O)c1ccccc1C(=O)Nc1cccc2ccccc12 [NPA, N-1-naphthylphthalamic acid]
Quantitative GUS activity in roots compared to controls (AtCel5-GUS expression; agar plates supplemented with 1 μM NPA): large decrease
